Assays:
[1] = Inhibition of citric acid-mediated enamel surface softening (Vickers microhardness/microindentation); set-up: species or system human; conditions: Example 1; for enamel surface microhardness (baseline = 100): ± = standard deviation; for levels of protection compared among SDP, PDEP and fluoride positive control: at 10 and 20 minutes; for levels of protection compared among SDP, PDEP and fluoride positive control / protection versus the fluoride positive control: in words; for protection versus the fluoride positive control: at 30 minutes
Protocol: The first stage of dental erosion and acid wear involves demineralisation of the hard tissue surface and consequent surface softening. The present study employed a Duramin Microhardness Tester to assess the protective effect of SDP and PDEP against an erosive challenge based on citric acid.
Sound human enamel specimens were polished with 2400 grit abrasive and subsequently immersed in an aqueous solution of the specified treatment at pH 7 for 2 minutes under ambient conditions, with agitation. After rinsing with deionised water, the enamel specimens were exposed to an erosive challenge comprising an aqueous solution of 0.30% w/w citric acid monohydrate, pH 3.6. The extent of acid damage was assessed by monitoring the decrease in enamel surface hardness as a function of acid exposure time. The microhardness value for each specimen at a given time point was based on the mean of 6 indents. Each treatment leg employed 3 enamel specimens, which were randomised according to baseline microhardness. A 300 ppm fluoride ion solution (from NaF) was employed as the positive control; deionised water was employed as the negative control. The protective effects of combination treatment solutions i.e. 0.50% alkyl phosphate plus 300 ppm fluoride, were also investigated.
The actives were tested as aqueous solutions at 0.50% w/w and pH 7.

[2] = Enamel solubility reduction (FDA ESR model #33 modified), citric acid challenge; conditions: for Enamel Solubility Reduction (%): 1.0% w/w citric acid monohydrate pH 3.75, alkyl phosphates 0.50% w/w aqueous, pH 7, normalised to water negative control
From the text: (§1) FDA caries monograph enamel solubility reduction (ESR) model #33 is designed to evaluate in vitro the utility of fluoride toothpastes to protect enamel against a bacterial (lactic) acid challenge. In brief, enamel specimens are placed in a lactic acid challenge (pH 4.5) and the solubility determined by spectrophotometric analysis of released phosphate. Specimens are then placed in the relevant treatment solution derived from the supernatant of a 1:3 slurry of the toothpaste in deionised water. After 5 minutes the specimens are removed, rinsed, and placed in a fresh lactic acid challenge. The enamel solubility is determined once again, and the ESR value calculated as a percentage reduction relative to the baseline solubility.
The methodology described above was modified in order to evaluate the ability of putative anti-erosion actives to confer protection against a more aggressive dietary acid challenge. […] The alkyl phosphates were tested as 0.50% w/w aqueous solutions at pH 7. Fluoride was included as a positive control, and Crest Cavity Protection was also run as an additional control standard.

[3] = Enamel solubility reduction (FDA ESR model #33 modified), phosphoric acid challenge
From the text: as §1
FDA ESR Model #33 was modified by replacing lactic acid with phosphoric acid, a dietary acid most commonly associated with cola drinks. Determination of enamel solubility in this study was based on analysis of the released calcium to prevent interference from the acid challenge.

[4] = 10 mins acid (0.30% w/w citric acid monohydrate, pH 3.6) after 2 min treatment at pH 7
[5] = 20 mins acid (0.30% w/w citric acid monohydrate, pH 3.6) after 2 min treatment at pH 7
[6] = 30 mins acid (0.30% w/w citric acid monohydrate, pH 3.6) after 2 min treatment at pH 7

Compound	enamel surface microhardness (baseline = 100) [1, 4]	enamel surface microhardness (baseline = 100) [1, 5]	enamel surface microhardness (baseline = 100) [1, 6]	levels of protection compared among SDP, PDEP and fluoride positive control [1]	protection versus the fluoride positive control [1]	Enamel Solubility Reduction (%) [2]	directional comparison with fluoride ([2]; citric acid ESR, in words)	statistical comparison with the 300 ppm fluoride control ([2]; citric acid ESR, in words)	protection against the phosphoric acid challenge compared to the negative water control ([3]; in words)	acid protection versus the 300 ppm fluoride ([3]; phosphoric acid ESR, in words)	Enamel Solubility Reduction (%) ([3]; phosphoric acid challenge, solubility from released calcium)
CCCCCCCCCCCCOP(=O)([O-])[O-].[Na+].[Na+] [SDP, sodium dodecyl phosphate]	94 ± 1.7	84 ± 4.0	80 ± 2.0	comparable	statistically superior	36.76%	directionally superior	not statistically different	statistically significant protection	statistically superior	16.02%
potassium dodecyl ether (1EO) phosphate [PDEP]	92.5 ± 1.8	82.5 ± 2.7	78 ± 2.8	comparable	statistically superior	17.77%	–	statistically inferior	–	–	–

From patent US20100316579A1, “NOVEL USE OF ALKYL PHOSPHATE ESTERS” (Glaxo Group Limited, priority 2006, published 2010)
